# Laboratory results from patent publication US4257941A, “Polycyclic nitrogen-containing compounds” (BASF Aktiengesellschaft, priority 1976, dated 1981).
# Experiments:
# oats = experiment: Growth height of oats, greenhouse (Example 10); type: in vivo, oats (Flamingskrone); settings: for Plant height relative: control 100
# Text: (§1) In the greenhouse, the four cereals wheat ("Opal" variety), rye ("Petkuser"), barley ("Villa") and oats ("Flamingskrone") were sown in plastic dishes 11.5 cm in diameter in a sandy loam adequately supplied with nutrients. The active ingredients were applied at various rates to the soil and to the leaves. When applied to the soil, the active ingredient were sprayed onto the surface of the soil on the day of sowing; in the case of leaf treatment, the leaves were sprayed in the usual manner at a growth height of the plants of 10 cm. During the 18 day growth period, the treated plants grew much more slowly than the untreated control, a fact later confirmed by measurements of the stem length. Measurements were taken of 100 plants from each series.
# (§2) The prior art agent used for comparison purposes was N-2-chloroethyl-N,N,N-trimethylammonium chloride (CCC; German Printed Application DAS No. 1,294,734).
# barley = experiment: Growth height of barley, greenhouse (Example 9); type: in vivo, barley (Villa); settings: for Plant height relative: control 100
# Text: as §1, §2
# wheat = experiment: Growth height of wheat, greenhouse (Example 7); type: in vivo, wheat (Opal variety); settings: for Plant height relative: control 100
# Text: as §1, §2
# lawns = experiment: Long-term action on lawns (Example 14); type: in vivo; settings: for First cutting, green weight relative / First cutting, growth height relative / Second cutting, green weight relative / Second cutting, growth height relative / Third cutting, green weight relative: control 100
# rye = experiment: Growth height of rye, greenhouse (Example 8); type: in vivo, rye (Petkuser); settings: soil; for Plant height relative: control 100
# Text: as §1, §2
structure (smiles),measurement,setting,value
Brc1ccc(N2N=NC3C4CC(C5N=NC45)C32)cc1 (stereo not shown) [drawing 357],Plant height,"oats; soil, 0.5 kg/ha",28.0 cm
same,Plant height relative,"oats; soil, 0.5 kg/ha",100
same,Plant height,"oats; soil, 1.0 kg/ha",26.5 cm
same,Plant height relative,"oats; soil, 1.0 kg/ha",94.6
same,Plant height,"oats; soil, 2.0 kg/ha",24.5 cm
same,Plant height relative,"oats; soil, 2.0 kg/ha",87.5
same,Plant height,"oats; soil, 6.0 kg/ha",15.5 cm
same,Plant height relative,"oats; soil, 6.0 kg/ha",55.4
Clc1ccc(N2N=NC3C4CC(C5N=NC45)C32)cc1 (stereo not shown) [drawing 352],Plant height,"barley; soil, 0.5 kg/ha",28.0 cm
same,Plant height relative,"barley; soil, 0.5 kg/ha",88.9
same,Plant height,"barley; soil, 1.0 kg/ha",28.0 cm
same,Plant height relative,"barley; soil, 1.0 kg/ha",88.9
same,Plant height,"barley; soil, 2.0 kg/ha",23.5 cm
same,Plant height relative,"barley; soil, 2.0 kg/ha",74.6
same,Plant height,"barley; soil, 6.0 kg/ha",16.5 cm
same,Plant height relative,"barley; soil, 6.0 kg/ha",52.4
Brc1ccc(N2N=NC3C4CC(C5N=NC45)C32)cc1 (stereo not shown) [drawing 347],Plant height,"wheat; leaf, 0.125 kg/ha",25.0 cm
same,Plant height relative,"wheat; leaf, 0.125 kg/ha",83.3
same,Plant height,"wheat; leaf, 0.5 kg/ha",23.5 cm
same,Plant height relative,"wheat; leaf, 0.5 kg/ha",78.3
same,Plant height,"wheat; leaf, 1.0 kg/ha",21.0 cm
same,Plant height relative,"wheat; leaf, 1.0 kg/ha",70.0
same,Plant height,"wheat; leaf, 2.0 kg/ha",21.5 cm
same,Plant height relative,"wheat; leaf, 2.0 kg/ha",71.7
same,Plant height,"wheat; leaf, 4.0 kg/ha",20.0 cm
same,Plant height relative,"wheat; leaf, 4.0 kg/ha",66.7
Brc1ccc(N2N=NC3C4CC(C5N=NC45)C32)cc1 (stereo not shown) [drawing 355],Plant height,"barley; leaf, 0.125 kg/ha",25.5 cm
same,Plant height relative,"barley; leaf, 0.125 kg/ha",85.0
same,Plant height,"barley; leaf, 0.5 kg/ha",23.5 cm
same,Plant height relative,"barley; leaf, 0.5 kg/ha",78.3
same,Plant height,"barley; leaf, 1.0 kg/ha",22.0 cm
same,Plant height relative,"barley; leaf, 1.0 kg/ha",73.3
same,Plant height,"barley; leaf, 2.0 kg/ha",20.5 cm
same,Plant height relative,"barley; leaf, 2.0 kg/ha",68.3
same,Plant height,"barley; leaf, 4.0 kg/ha",20.0 cm
same,Plant height relative,"barley; leaf, 4.0 kg/ha",66.7
Fc1ccc(N2N=NC3C4CC(C5N=NC45)C32)cc1 (stereo not shown),"First cutting, green weight",lawns; 0.5 kg/ha,23.1 g
same,"First cutting, growth height",lawns; 0.5 kg/ha,15.0 cm
same,"Second cutting, green weight",lawns; 0.5 kg/ha,21.8 g
same,"Second cutting, growth height",lawns; 0.5 kg/ha,10.0 cm
same,"Third cutting, green weight",lawns; 0.5 kg/ha,14.6 g
same,"First cutting, green weight relative",lawns; 0.5 kg/ha,65.4
same,"First cutting, growth height relative",lawns; 0.5 kg/ha,83.3
same,"Second cutting, green weight relative",lawns; 0.5 kg/ha,81.6
same,"Second cutting, growth height relative",lawns; 0.5 kg/ha,68.0
same,"Third cutting, green weight relative",lawns; 0.5 kg/ha,96.1
same,"First cutting, green weight",lawns; 1.0 kg/ha,20.5 g
same,"First cutting, growth height",lawns; 1.0 kg/ha,12.5 cm
same,"Second cutting, green weight",lawns; 1.0 kg/ha,21.4 g
same,"Second cutting, growth height",lawns; 1.0 kg/ha,9.0 cm
same,"Third cutting, green weight",lawns; 1.0 kg/ha,13.5 g
same,"First cutting, green weight relative",lawns; 1.0 kg/ha,58.1
same,"First cutting, growth height relative",lawns; 1.0 kg/ha,69.5
same,"Second cutting, green weight relative",lawns; 1.0 kg/ha,80.1
same,"Second cutting, growth height relative",lawns; 1.0 kg/ha,61.2
same,"Third cutting, green weight relative",lawns; 1.0 kg/ha,88.8
same,"First cutting, green weight",lawns; 2.0 kg/ha,9.8 g
same,"First cutting, growth height",lawns; 2.0 kg/ha,7.5 cm
same,"Second cutting, green weight",lawns; 2.0 kg/ha,10.1 g
same,"Second cutting, growth height",lawns; 2.0 kg/ha,5.0 cm
same,"Third cutting, green weight",lawns; 2.0 kg/ha,9.5 g
same,"First cutting, green weight relative",lawns; 2.0 kg/ha,27.8
same,"First cutting, growth height relative",lawns; 2.0 kg/ha,41.7
same,"Second cutting, green weight relative",lawns; 2.0 kg/ha,37.8
same,"Second cutting, growth height relative",lawns; 2.0 kg/ha,34.0
same,"Third cutting, green weight relative",lawns; 2.0 kg/ha,62.5
same,"First cutting, green weight",lawns; 4.0 kg/ha,7.9 g
same,"First cutting, growth height",lawns; 4.0 kg/ha,6.5 cm
same,"Second cutting, green weight",lawns; 4.0 kg/ha,7.1 g
same,"Second cutting, growth height",lawns; 4.0 kg/ha,2.0 cm
same,"Third cutting, green weight",lawns; 4.0 kg/ha,7.9 g
same,"First cutting, green weight relative",lawns; 4.0 kg/ha,22.4
same,"First cutting, growth height relative",lawns; 4.0 kg/ha,36.1
same,"Second cutting, green weight relative",lawns; 4.0 kg/ha,26.6
same,"Second cutting, growth height relative",lawns; 4.0 kg/ha,13.6
same,"Third cutting, green weight relative",lawns; 4.0 kg/ha,52.0
Clc1ccc(N2N=NC3C4CC(C5N=NC45)C32)cc1 (stereo not shown) [drawing 346],Plant height,"wheat; leaf, 0.125 kg/ha",24.0 cm
same,Plant height relative,"wheat; leaf, 0.125 kg/ha",80.0
same,Plant height,"wheat; leaf, 0.5 kg/ha",22.0 cm
same,Plant height relative,"wheat; leaf, 0.5 kg/ha",73.3
same,Plant height,"wheat; leaf, 1.0 kg/ha",20.0 cm
same,Plant height relative,"wheat; leaf, 1.0 kg/ha",66.6
same,Plant height,"wheat; leaf, 2.0 kg/ha",19.0 cm
same,Plant height relative,"wheat; leaf, 2.0 kg/ha",63.3
same,Plant height,"wheat; leaf, 4.0 kg/ha",17.5 cm
same,Plant height relative,"wheat; leaf, 4.0 kg/ha",58.3
Brc1ccc(N2N=NC3C4CC(C5N=NC45)C32)cc1 (stereo not shown) [drawing 359],Plant height,"oats; leaf, 0.125 kg/ha",25.5 cm
same,Plant height relative,"oats; leaf, 0.125 kg/ha",91.1
same,Plant height,"oats; leaf, 0.5 kg/ha",25.0 cm
same,Plant height relative,"oats; leaf, 0.5 kg/ha",89.3
same,Plant height,"oats; leaf, 1.0 kg/ha",22.5 cm
same,Plant height relative,"oats; leaf, 1.0 kg/ha",80.4
same,Plant height,"oats; leaf, 2.0 kg/ha",22.5 cm
same,Plant height relative,"oats; leaf, 2.0 kg/ha",80.4
same,Plant height,"oats; leaf, 4.0 kg/ha",22.0 cm
same,Plant height relative,"oats; leaf, 4.0 kg/ha",78.6
Clc1ccc(N2N=NC3C4CC(C5N=NC45)C32)cc1 (stereo not shown) [drawing 348],Plant height,rye; 0.5 kg/ha,22.5 cm
same,Plant height relative,rye; 0.5 kg/ha,77.6
same,Plant height,rye; 1.0 kg/ha,19.0 cm
same,Plant height relative,rye; 1.0 kg/ha,65.5
same,Plant height,rye; 2.0 kg/ha,13.0 cm
same,Plant height relative,rye; 2.0 kg/ha,44.8
same,Plant height,rye; 6.0 kg/ha,8.5 cm
same,Plant height relative,rye; 6.0 kg/ha,29.3
Clc1ccc(N2N=NC3C4CC(C5N=NC45)C32)cc1 (stereo not shown) [drawing 344],Plant height,"wheat; soil, 0.5 kg/ha",28.5 cm
same,Plant height relative,"wheat; soil, 0.5 kg/ha",91.9
same,Plant height,"wheat; soil, 1.0 kg/ha",23.0 cm
same,Plant height relative,"wheat; soil, 1.0 kg/ha",74.2
same,Plant height,"wheat; soil, 2.0 kg/ha",20.5 cm
same,Plant height relative,"wheat; soil, 2.0 kg/ha",66.1
same,Plant height,"wheat; soil, 6.0 kg/ha",10.5 cm
same,Plant height relative,"wheat; soil, 6.0 kg/ha",33.9
